Source: ChEMBL document CHEMBL3044767, “GdCl3 promoted synthesis of novel pyrimidine fused indazole derivatives and their anticancer activity” (Med Chem Res, 2012)
Values after ≈ are worked out from the molar mass of the structure shown.

Tested on: THP-1
Assay: Cytotoxicity against Homo sapiens (human) THP1 cells after 48 hr by MTT assay
Format: functional, cell-based
Settings: THP-1, 48 h

In order of falling IC50:
1. N#Cc1c(C(F)(F)F)cc(-c2ccccc2)c2c3n(nc12)[C@H]1OCCC[C@H]1[C@H](c1ccccc1)N3  79.9 µg/mL (≈ 168 µM)
2. N#Cc1c(-c2ccccc2)cc(C(F)(F)F)c2c3n(nc12)[C@H]1OCCC[C@H]1CN3  65.4 µg/mL (≈ 164 µM)
3. C=CC1(C)C[C@H](c2ccccc2)Nc2c3c(-c4ccccc4)cc(C(F)(F)F)c(C#N)c3nn21 (some centres not stated)  53.3 µg/mL (≈ 116 µM)
4. N#Cc1c(C(F)(F)F)cc(-c2ccccc2)c2c3n(nc12)[C@H]1OCCC[C@H]1CN3  33.5 µg/mL (≈ 84.1 µM)

Tested on: U-937
Assay: Ratio of etoposide IC50 to compound IC50 for Homo sapiens (human) U937 cells after 48 hr by MTT assay
Format: functional
Settings: not given

In order of rising “Ratio IC50” value:
1. C=CC1(C)CCNc2c3c(-c4ccccc4)cc(C(F)(F)F)c(C#N)c3nn21 (configuration not stated)  1.09
2. N#Cc1c(-c2ccccc2)cc(C(F)(F)F)c2c3n(nc12)C(c1ccccc1)CCN3 (configuration not stated)  1.13
3. N#Cc1c(C(F)(F)F)cc(-c2ccccc2)c2c3n(nc12)[C@H]1OCCC[C@H]1[C@H](c1ccccc1)N3  1.17
4. C=CC1(C)C[C@H](c2ccccc2)Nc2c3c(-c4ccccc4)cc(C(F)(F)F)c(C#N)c3nn21 (some centres not stated)  1.21
5. N#Cc1c(C(F)(F)F)cc(-c2ccccc2)c2c3n(nc12)C(c1ccccc1)CCN3 (configuration not stated)  1.33
6. N#Cc1c(-c2ccccc2)cc(C(F)(F)F)c2c3n(nc12)C(c1ccccc1)C[C@H](c1ccccc1)N3 (some centres not stated)  1.4
7. N#Cc1c(-c2ccccc2)cc(C(F)(F)F)c2c3n(nc12)[C@H]1OCCC[C@H]1CN3  1.63
8. N#Cc1c(-c2ccccc2)cc(C(F)(F)F)c2c3n(nc12)[C@H]1C=CCC[C@H]1CN3  4

Tested on: U-937
Assay: Cytotoxicity against Homo sapiens (human) U937 cells after 48 hr by MTT assay
Format: functional, cell-based
Settings: U-937, 48 h

In order of falling IC50:
1. C=CC1(C)CCNc2c3c(C(F)(F)F)cc(-c4ccccc4)c(C#N)c3nn21 (configuration not stated)  53.5 µg/mL (≈ 140 µM)
2. N#Cc1c(C(F)(F)F)cc(-c2ccccc2)c2c3n(nc12)[C@H]1OCCC[C@H]1CN3  11.2 µg/mL (≈ 28.2 µM)
3. C=CC1(C)CCNc2c3c(-c4ccccc4)cc(C(F)(F)F)c(C#N)c3nn21 (configuration not stated)  9.73 µg/mL (≈ 25.4 µM)
4. N#Cc1c(-c2ccccc2)cc(C(F)(F)F)c2c3n(nc12)C(c1ccccc1)CCN3 (configuration not stated)  9.36 µg/mL (≈ 22.4 µM)
5. N#Cc1c(C(F)(F)F)cc(-c2ccccc2)c2c3n(nc12)[C@H]1OCCC[C@H]1[C@H](c1ccccc1)N3  9.02 µg/mL (≈ 19 µM)
6. C=CC1(C)C[C@H](c2ccccc2)Nc2c3c(-c4ccccc4)cc(C(F)(F)F)c(C#N)c3nn21 (some centres not stated)  8.7 µg/mL (≈ 19 µM)
7. N#Cc1c(C(F)(F)F)cc(-c2ccccc2)c2c3n(nc12)C(c1ccccc1)CCN3 (configuration not stated)  7.92 µg/mL (≈ 18.9 µM)
8. N#Cc1c(-c2ccccc2)cc(C(F)(F)F)c2c3n(nc12)C(c1ccccc1)C[C@H](c1ccccc1)N3 (some centres not stated)  7.52 µg/mL (≈ 15.2 µM)
9. N#Cc1c(-c2ccccc2)cc(C(F)(F)F)c2c3n(nc12)[C@H]1OCCC[C@H]1CN3  6.49 µg/mL (≈ 16.3 µM)
10. N#Cc1c(-c2ccccc2)cc(C(F)(F)F)c2c3n(nc12)[C@H]1C=CCC[C@H]1CN3  2.64 µg/mL (≈ 6.69 µM)
